Results reported in US20070149483A1, “Methods and compounds for modulating triglyceride and vldl secretion” (priority 2003, published 2007).

Legend:
[1] = system: McA-RH7777 cells stably expressing human apoB100; experiment: Immunofluorescent localization of apoB and Map1LC3; assay type: cell-based, rat; settings: 0.4 mM, 4 h, in comparison to controls
Procedure: Cells were permeabilized with 1% Triton X-100 in blocking buffer (10% FBS in PBS) for 30 min and probed with primary antibodies, i.e., monoclonal antibody 1D1 (1:1000) for human apoB and polyclonal antibody against rat Map1LC3 (1:200) for 1 h. Cells were then incubated with a mixture of secondary antibodies (1:200), i.e., of goat anti-mouse IgG conjugated with Alexa Fluor™488 (green) and goat anti-rabbit IgG conjugated with Alexa Fluor™594 (red) for 1 h. The coverslips were mounted onto glass slides using SlowFade AntiFade kits (Molecular Probes) and the images were captured by an MRC-1024 laser scanning confocal imaging system. […] The secondary antibody for apoB was conjugated with Alexa Fluor™488 (green), and that for Map1LC3 was conjugated with Alexa Fluor™594 (red).

McA-RH777 cells = settings: oleate-treated cells; cited from earlier work
[2] = system: McA-RH7777 cells stably expressing human apoB100; experiment: Pulse-chase with subcellular fractionation: membrane-associated apoB100 trafficking; assay type: cell-based, rat; settings: 20 min pulse
Procedure: The cells were then incubated with chase medium for 15, 30 and 45 min. At the end of each chase time, the medium was collected and subjected to cumulative rate flotation centrifugation (Wang et al., 1999) to resolve apoB100-VLDL1 (Sf>100) and apoB100-VLDL2 (Sf 20-100) from other lipoproteins (i.e. IDL, LDL and HDL). The ^35S-apoB100 in each fraction was recovered by immunoprecipitation. Also, at the end of each chase time, the radiolabeled cells were harvested in 2 ml of ice-cold homogenization buffer (10 mM Tris-HCl, pH 7.4, 250 mM sucrose, 5 mM EDTA, and serine/cysteine protease inhibitor mixture), mixed with two 100-mm dishes of unlabeled cells, homogenized by passing ten times through a ball-bearing homogenizer, and subjected to subcellular fractionation and carbonate-treatment as described below. […]
Analysis of ApoB100 Associated with Membranes and Lumenal Contents of Microsomes—Lumenal contents were separated from membranes by sodium carbonate treatment followed by centrifugation (Tran et al., 2002). The ^35S-labelled apoB100 proteins associated with the membrane and lumen were recovered by immunoprecipitation and analyzed by SDS-PAGE/fluorography as previously described (Tran et al., 2002). […]

[3] = system: McA-RH7777 cells stably expressing human apoB100; settings: Tran et al., 2002, cited from earlier work
[4] = system: McA-RH7777 cells expressing human apoB100; experiment: Pulse-chase of [35S]apoB100 with rate flotation of conditioned medium and microsomal lumen; assay type: cell-based, rat; settings: 30 min pulse, end of 1-h chase
Procedure: Cell Culture and Fatty Acid Treatments—Transfected McA-RH7777 cells stably expressing human apoB100 (McLeod et al., 1994, J. Biol. Chem. 269, 2852-2862) were cultured in Dulbecco's modified Eagle's medium (DMEM) containing 10% fetal bovine serum (FBS), 10% horse serum and 200 μg/ml G418. Routinely, the cells were incubated with 0.4 mM fatty acids for 16-18 h in the presence of 20% FBS prior to experiments.

[5] = system: McA-RH7777 cells stably expressing human apoB100; experiment: Transmission electron microscopy morphometry of lipid/lipoprotein particles in Golgi and GAV; assay type: cell-based, rat; settings: for relative occurrence of particle type in the GAV: n=221; for relative occurrence of particle type in trans-Golgi saccules 4-6+TGN/secretory vesicles: n=284
Procedure: The samples were processed for transmission electron microscopy as previously described (Tran et al., 2002). Single and serial thin sections (silver-gold interference colors) were visualized in a Hitachi H-7000 transmission electron microscope, and captured at a range of negative magnifications (8,000-120,000 times). Panoramic tiling was used to capture large fields. The 3D model was prepared from Golgi fields from 7 consecutive serial images (positive magnification=70,000 times), by the method previously described (Thorne-Tjomsland et al., 1998, Anat. Rec. 250, 381-396), with the following modifications. The serial fields were scanned into Adobe Photoshop 5.5 of an Imac 700 MHz G4 computer. Alignment of consecutive sections by fiducial markers was carried out prior to object-contouring and -separation. Concatenation and volume rendering were done in Synu on an SGI-OS 2, and image capture was with Photoshop on a Macintosh platform. The diameter of electron-dense particles, which represent a combination of lipoprotein particles and lipid droplets, were measured in 40 randomly selected Golgi regions from EPA-treated cells. Negative magnification was 40,000 times and positives were further magnified three times. Measurements were from positives, using a digital caliper [technical specifications in required range (0-150 mm on positive): max resolution=0.01 mm; accuracy=0.02 mm; repeatability=0.01 mm]. The precision in our system was tested by measuring the diameters of each of two electron-dense particles (20 nm and 40 nm diameter) 40 times; SD for the average converted measurements was <1 nm. Criteria for selecting Golgi, establishing cis-trans polarity, and measuring lipid/lipoprotein particles were as described (Tran et al., 2002). Lipid/lipoprotein particles were classified as membrane-associated if directly apposed to the lumenal Golgi leaflet or with a membrane diverging from this, otherwise as lumenal.

SMILES: CCCCCCCC/C=C\CCCCCCCC(=O)O [Oleate, oleic acid]
- autophagy (penetration of Map1LC3 staining into the apoB100-rich perinuclear area, partial co-localization with apoB100) [1]: induced autophagy
- share of total secreted TG carried by VLDL particles (McA-RH777 cells): > 80%
- share of total secreted apoB100 carried by VLDL particles (McA-RH777 cells): < 10%
- rate at which the membrane-associated [^35S]-apoB100 exited the ER ([2]; chase 0, 15, 30 and 45 min): −0.59±0.17 % of total/min
- rate at which the membrane-associated [^35S]-apoB100 appeared in the distal Golgi ([2]; chase 0-45 min): 0.39±0.11 % of total/min
- size of lipoprotein particles detected in oleate-treated cells [3]: 40 nm
- average diameters of lipoproteins in Golgi saccules 1-6 ([3]; oleate-treated McArdle cells): 40±17 nm

SMILES: CC/C=C\C/C=C\C/C=C\C/C=C\C/C=C\CCCC(=O)O [EPA, eicosapentaenoic acid]
- increase of [^35S]-apoB100 in fractions of high density (IDL and LDL) in the microsomal lumen ([4]; vs oleate): six-fold
- decrease of [^35S]-apoB100 in VLDL (VLDL1 and VLDL2) in the media, as compared to oleate-treatment ([4]; 16 h pretreatment): 50%
- average size of Type I particles in the cis-most Golgi saccule ([5]; EPA-treated cells): 100 nm
- average size of Type V particles ([5]; EPA-treated cells): 54.5 nm
- sizes of Type V particles in the Golgi ([5]; EPA-treated cells): 25-75 nm
- Percent membrane association of particles ([5]; Type I, GAV): 33%
- Percent membrane association of particles ([5]; Type I, Golgi saccule 1): 100%
- Percent membrane association of particles ([5]; Type I, Golgi saccule 2): 84%
- Percent membrane association of particles ([5]; Type I, Golgi saccule 3): 80%
- Percent membrane association of particles ([5]; Type I, Golgi saccules 4-6): 73%
- Percent membrane association of particles ([5]; Type I, TGN and secretory): 56%
- relative occurrence of particle type in the GAV ([5]; Type I): 12%
- relative occurrence of particle type in trans-Golgi saccules 4-6+TGN/secretory vesicles ([5]; Type I): 12%
- Percent membrane association of particles ([5]; Type II, GAV): 25%
- Percent membrane association of particles ([5]; Type II, Golgi saccule 1): 100%
- Percent membrane association of particles ([5]; Type II, Golgi saccule 2): 83%
- Percent membrane association of particles ([5]; Type II, Golgi saccule 3): 75%
- relative occurrence of particle type in the GAV ([5]; Type II): 2%
- relative occurrence of particle type in trans-Golgi saccules 4-6+TGN/secretory vesicles ([5]; Type II): 4%
- Percent membrane association of particles ([5]; Type III, GAV): 46%
- Percent membrane association of particles ([5]; Type III, Golgi saccule 1): 100%
- Percent membrane association of particles ([5]; Type III, Golgi saccule 2): 83%
- Percent membrane association of particles ([5]; Type III, Golgi saccule 3): 83%
- Percent membrane association of particles ([5]; Type III, Golgi saccules 4-6): 82%
- Percent membrane association of particles ([5]; Type III, TGN and secretory): 73%
- relative occurrence of particle type in the GAV ([5]; Type III): 11%
- relative occurrence of particle type in trans-Golgi saccules 4-6+TGN/secretory vesicles ([5]; Type III): 13%
- Percent membrane association of particles ([5]; Type IV, GAV): 45%
- Percent membrane association of particles ([5]; Type IV, Golgi saccules 4-6): 50%
- Percent membrane association of particles ([5]; Type IV, TGN and secretory): 20%
- Percent membrane association of particles ([5]; Type IV, combined Golgi saccules 1-3): 67%
- relative occurrence of particle type in the GAV ([5]; Type IV): 5%
- relative occurrence of particle type in trans-Golgi saccules 4-6+TGN/secretory vesicles ([5]; Type IV): 5%
- Percent membrane association of particles ([5]; Type V, GAV): 42%
- Percent membrane association of particles ([5]; Type V, Golgi saccule 1): 96%
- Percent membrane association of particles ([5]; Type V, Golgi saccule 2): 83%
- Percent membrane association of particles ([5]; Type V, Golgi saccule 3): 66%
- Percent membrane association of particles ([5]; Type V, Golgi saccules 4-6): 64%
- Percent membrane association of particles ([5]; Type V, TGN and secretory): 66%
- relative occurrence of particle type in the GAV ([5]; Type V): 70%
- relative occurrence of particle type in trans-Golgi saccules 4-6+TGN/secretory vesicles ([5]; Type V): 66%
